From article PMC7700221, “Antiproliferative Homoleptic and Heteroleptic Phosphino Silver(I) Complexes: Effect of Ligand Combination on Their Biological Mechanism of Action” (Molecules, 2020)
Like-named read-outs stand apart in the source and are kept apart here.

Tests used:
[1] = tested on: BxPC3 pancreatic cancer cells; experiment: cells; conditions: Homo sapiens, BXPC-3, 72 h, read-out: IC50 (µM) ± S.D. BxPC3
[2] = tested on: HCT-15 colon cancer cells; experiment: cells; conditions: Homo sapiens, HCT-15, 72 h, read-out: IC50 (µM) ± S.D. HCT-15
[3] = tested on: MCF-7 breast cancer cells; experiment: cells; conditions: Homo sapiens, MCF7, 72 h, read-out: IC50 (µM) ± S.D. MCF-7
[4] = tested on: A431 cervical carcinoma cells; experiment: cells; conditions: Homo sapiens, A-431, 72 h, read-out: IC50 (µM) ± S.D. A431
[5] = tested on: A375 melanoma cells; experiment: cells; conditions: Homo sapiens, A-375, 72 h, read-out: IC50 (µM) ± S.D. A375
[6] = tested on: A549 lung cancer cells; experiment: cells; conditions: Homo sapiens, A549, 72 h, read-out: IC50 (µM) ± S.D. A549
[7] = tested on: HCT-15 colon cancer cells; conditions: for times more effective than cisplatin, HCT-15: HCT-15 cells, 72 h MTT, versus cisplatin
[8] = tested on: TrxR; conditions: 2008 cells, 18 h, 2.5 µM
Experimental: TrxR inhibition was also evaluated in 2008 cells treated for 18 h with equimolar concentrations (2.5 µM) of all phosphino silver(I) derivatives and of AgNO3.
The 2008 cells were incubated for 18 h with tested compounds. Subsequently, cells were washed twice with Phosphate Buffer Solution (PBS) and lysed. TrxR activity was tested by measuring NADPH-dependent reduction of DTNB and glutathione peroxidase (GPx) activity was followed at 340 nm.

[9] = tested on: 2008 cells (cellular DNA fragmentation); conditions: 6 h
Experimental: About 4 × 10^4 2008 cells were seeded in 25 cm^2 flasks in growth medium (6 mL). After 24 h, cells were incubated for 3h with 2.5µM of tested compounds. Cells were washed twice with cold PBS, harvested, centrifuged, and DNA fragmentation was measured by the alkaline comet assay. Low melting point agarose, 300 μL (Trevigen Inc., Gaithersburg, MD, USA) was heated to 37 °C and combined with 2 × 10^5 cells per mL cell suspension. Each well of a 20-well CometSlide was filled with 30 μL of the cell/agarose suspension. The slides were placed in a 4 °C refrigerator in the dark for 15 min to solidify. Slides were then immersed in 50 mL of pre-chilled lysis solution containing Trizma base, Triton X-100, DMSO and left at 4 °C for 30 min to facilitate cell membrane and histone removal. After draining excess liquid, the slides were transferred to 50 mL of freshly prepared (same day) alkaline DNA unwinding solution, (200 mmol/L NaOH, 1 mmol/L EDTA, pH > 13) and incubated at room temperature in the dark for 20 min. After the unwinding step, electrophoresis was performed at 21 V for 30 min. Slides were then rinsed with distilled water and fixed 5 min in 70% ethanol. Slides were dried and stained 5 min at 4 °C with SYBR Green I (Trevigen, Inc.) diluted 1:10000 in 10 mmol/L Tris pH 7.5, 1 mmol/L EDTA, drained to remove excess staining solution and thoroughly dried at room temperature in the dark. Micrographs were taken with a Zeiss LSM-800 confocal microscope (Zeiss, Oberkochen, Germany).

[10] = tested on: CT-DNA
Experimental: From the observed spectra, KSV was calculated according to the classical Stern–Volmer equation (Figure S16B).
The UV–Vis absorption spectroscopic studies and the DNA binding experiments were performed at
Experiments were performed by maintaining a fixed CT-DNA concentration (30
Sample solutions were scanned in the range
200−500 nm on a computer-controlled Varian Coulter DU 800 spectrophotometer.
EB–DNA competition experiments
The ethidium bromide (EB) displacement experiments were performed by titration with aliquots of
tested compounds of a Tris buffer solution containing 10 μM DNA (8.0–15 kbp) and 0.33 μM EB
(saturated binding levels). The fluorescence spectrum of the solution was obtained by exciting at 520
nm and measuring the emission spectra at 587 nm.
determined from the slope of the diagram F0/F versus r.

[11] = tested on: 2008 cells; conditions: 24 h or 48 h
Experimental: The 2008 cells (2 × 10^5) were seeded in a six-well plate in growth medium (4 mL). After 24 h, cells were incubated for 24 h with increasing concentrations of tested compounds. Subsequently, the thiol content was measured as previously described [43].
(A) Sulfhydryl content in 2008-treated cancer cells incubated for 24 h or 48 h with tested silver(I) compounds. The sulfhydryl group amount was determined by the DTNB assay.

[12] = tested on: 2008 cells; conditions: IC50 of compounds
Experimental: The production of ROS was measured in 2008 cells (10^4 per well) grown for 24 h in a 96-well plate in RPMI medium without phenol red (Sigma Chemical Co.). Cells were then washed with PBS and loaded with 10 μM 5-(and-6)-chloromethyl-2′,7′-dichlorodihydrofluorescein diacetate acetyl ester (CM–H2DCFDA) (Molecular Probes-Invitrogen, Eugene, OR) for 25 min, in the dark. Afterwards, cells were washed with PBS and incubated with increasing concentrations of tested compounds. Fluorescence increase was estimated utilizing the wavelengths of 485 nm (excitation) and 527 nm (emission) in a Fluoroskan Ascent FL (Labsystems, Finland) plate reader.
Error bars indicate S.D. (B) effect of silver(I) compounds on hydrogen peroxide formation in 2008 cells. 2008 cells were pre-incubated in PBS/10 mM glucose medium for 20 min at 37 °C in presence of 10 µM CM-DCFDA and then treated with IC50 of silver(I) compounds.

[13] = tested on: 2008 cells; conditions: IC50 concentrations, 24 or 48 h
Experimental: In particular, 2008 cells were treated for 24 or 48 h with IC50 concentrations of tested Ag(I) complexes, and the percentage of cells with hypopolarized mitochondrial membrane potential was determined fluorimetrically by means of the Mito-ID® Membrane Potential Kit.
The ΔΨ was assayed using the Mito-ID® Membrane Potential Kit according to the manufacturer’s instructions (Enzo Life Sciences, Farmingdale, NY). Briefly, 2008 cells (8 × 10^3 per well) were seeded in 96-well plates; after 24 h, cells were washed with PBS and loaded with Mito-ID Detection Reagent for 30 min at 37 °C in the dark. Afterwards, cells were incubated with increasing concentrations of tested complexes. Fluorescence intensity was estimated using a plate reader (Fluoroskan Ascent FL, Labsystems, Finland) at 490 (excitation) and 590 nm (emission). Carbonyl cyanide m-chlorophenyl hydrazone (CCCP, 4 μM), a chemical inhibitor of the oxidative phosphorylation, was used as positive control.
2008 cells were treated for 24 h or 48 h with IC50 concentrations of tested complexes or CCCP (3 μM). The percentage of cells with hypopolarized mitochondrial membrane potential was determined by Mito-ID® Membrane Potential Kit. Data are the means of three independent experiments. Error bars indicate S.D.

[14] = tested on: 2008 cells; conditions: 48 h, IC50 concentrations
Experimental: About 10^6 2008 cells were seeded in 24-well plates and, after 24 h incubation, were treated with the tested compounds and incubated for additional 24 h. Cells were then washed with cold PBS, harvested and directly fixed with 1.5% glutaraldehyde buffer with 0.2 M sodium cacodylate, pH 7.4. After washing with buffer and postfixation with 1% OsO4 in 0.2 M cacodylate buffer, specimens were dehydrated and embedded in epoxy resin (Epon Araldite). Sagittal serial sections (1 μm) were counterstained with toluidine blue; thin sections (90 nm) were given contrast by staining with uranyl acetate and lead citrate. Micrographs were taken with a Hitachi H-600 electron microscope (Hitachi, Tokyo, Japan) operating at 75 kV.

[15] = tested on: caspase-3; conditions: 2008 cells, IC50, 24 or 48 h
Experimental: (§1) The 2008 cells (1 × 10^6) were treated for 24 h with the IC50 doses of tested compounds, harvested and homogenized in a lysis buffer [1% Triton X-100, 320 nM sucrose, 5 mM EDTA, 10 mM Tris–HCl and 2 mM DTT (1,4-dithio-DL-threitol) buffer (pH 7.6)]. Protein aliquots (100 μg) were stained at 37 °C for 60 min with fluorescent caspase-3 (N-Acetyl-Asp-Glu-Val-Asp-AMC, AMC = 7-amino-4-methylcoumarin) or caspase-9 (Ac-Leu-Glu-His-Asp-AMC) substrate (Sigma Co.). Substrate hydrolysis was measured after 60 min by monitoring the release of AMC using a spectrofluorometer (excitation at 370 nm, emission at 460 nm).
(§2) Effect of silver(I) compounds on caspase-3 and -9 activation. […] Data are the means of at least three independent experiments. Error bars indicate SD.

[16] = tested on: caspase-9; conditions: 2008 cells, IC50 concentration, 24 h
Experimental: as §1, §2

[17] = tested on: BxPC3 pancreatic cancer cells; conditions: read-out: IC50 (µM) ± S.D. BxPC3; 72 h, MTT test
[18] = tested on: MCF-7 breast cancer cells; conditions: read-out: IC50 (µM) ± S.D. MCF-7; 72 h, MTT test
[19] = tested on: A431 cervical carcinoma cells; conditions: read-out: IC50 (µM) ± S.D. A431; 72 h, MTT test
[20] = tested on: A375 melanoma cells; conditions: read-out: IC50 (µM) ± S.D. A375; 72 h, MTT test
[21] = tested on: A549 lung cancer cells; conditions: read-out: IC50 (µM) ± S.D. A549; 72 h, MTT test
[22] = tested on: 2008 ovarian cancer cells; conditions: read-out: IC50 (µM) ± D.S. 2008; 72 h, MTT test, cisplatin-sensitive cells
[23] = tested on: C13* cisplatin-resistant ovarian cancer cells
[24] = tested on: human cancer cell line panel; conditions: read-out: average IC50; average over the six cancer cell lines, 72 h MTT
[25] = target: human TrxR1 (Homo sapiens, UniProt Q16881); conditions: isolated human TrxR1
Sequence of human TrxR1 (Q16881 151-649 limits assumed): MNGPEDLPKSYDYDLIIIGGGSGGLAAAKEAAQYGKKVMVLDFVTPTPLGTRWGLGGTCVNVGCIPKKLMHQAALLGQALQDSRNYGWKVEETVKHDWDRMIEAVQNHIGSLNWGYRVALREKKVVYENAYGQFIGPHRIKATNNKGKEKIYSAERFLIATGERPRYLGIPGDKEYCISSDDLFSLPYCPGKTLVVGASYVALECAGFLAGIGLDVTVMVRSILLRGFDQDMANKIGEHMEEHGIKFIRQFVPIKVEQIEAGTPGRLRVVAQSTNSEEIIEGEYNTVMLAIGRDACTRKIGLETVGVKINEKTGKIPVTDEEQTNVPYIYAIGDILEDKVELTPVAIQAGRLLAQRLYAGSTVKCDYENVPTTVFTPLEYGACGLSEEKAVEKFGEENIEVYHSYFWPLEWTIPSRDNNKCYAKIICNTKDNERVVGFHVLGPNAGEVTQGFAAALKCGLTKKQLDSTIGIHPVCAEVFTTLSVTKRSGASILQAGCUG

Sequence of caspase-9 (P55211 whole entry): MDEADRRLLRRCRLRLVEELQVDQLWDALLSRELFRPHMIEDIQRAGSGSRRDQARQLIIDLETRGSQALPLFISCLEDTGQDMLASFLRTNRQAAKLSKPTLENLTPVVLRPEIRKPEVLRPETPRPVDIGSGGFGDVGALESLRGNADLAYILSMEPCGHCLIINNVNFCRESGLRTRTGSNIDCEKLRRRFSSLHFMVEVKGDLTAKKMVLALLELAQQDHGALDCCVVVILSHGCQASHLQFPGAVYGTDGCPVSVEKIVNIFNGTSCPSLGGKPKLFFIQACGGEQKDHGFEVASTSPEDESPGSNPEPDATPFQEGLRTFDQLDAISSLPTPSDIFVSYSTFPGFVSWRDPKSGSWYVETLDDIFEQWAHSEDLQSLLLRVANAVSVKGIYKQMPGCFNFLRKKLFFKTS

Compound: O=S1(=O)N2CN3CN1CP(C3)C2 [PTA-SO2]
- IC50 [1]: > 100 µM
- IC50 [2]: > 100 µM
- IC50 [3]: 69.5 ± 3.4 µM
- IC50 [4]: 56 ± 3.5 µM
- IC50 [5]: > 100 µM
- IC50 [6]: > 100 µM

Compound: N#CCCP(CCC#N)CCC#N [PCN, tris(cyanoethyl)phosphine]
- IC50 [1]: > 100 µM
- IC50 [2]: > 100 µM
- IC50 [3]: > 100 µM
- IC50 [4]: > 100 µM
- IC50 [5]: > 100 µM
- IC50 [6]: > 100 µM

Compound: [Ag(PPh3)4]BF4 [Compound 10]
- times more effective than cisplatin, HCT-15 [7]: roughly 4.4 fold
- reduction of total cellular TrxR activity [8]: about 75%
- DNA damage in comet assay, in words [9]: barely effective in provoking DNA damage
- modification of DNA absorption bands [10]: no significant modifications in DNA properties
- cellular sulfhydryl content [11]: lowest levels of cellular sulfhydryl groups
- basal ROS / hydrogen peroxide production [12]: increase in basal hydrogen peroxide formation rather similar to that obtained with antimycin
- cells with hypopolarized mitochondrial membrane potential [13]: increase in the percentage of hypopolarized cells similar to that induced by reference compound carbonyl cyanide-m-chlorophenylhydrazone (CCCP)
- mitochondrial morphology by TEM [14]: mitochondria with disrupted cristae and a significant increase in volume (swelling)
- caspase-3 activation [15]: time-dependent activation of caspase-3
- enhancement in caspase-9 activity compared to control cells [16]: 2.6 fold

Compound: C1N2CN3CN1CP(C2)C3 [PTA, 1,3,5-triaza-7-phosphaadamantane]
- IC50 [1]: > 100 µM
- IC50 [2]: > 100 µM
- IC50 [3]: > 100 µM
- IC50 [4]: > 100 µM
- IC50 [5]: > 100 µM
- IC50 [6]: > 100 µM

Compound: Cisplatin
- IC50 [17]: 10.2 ± 1.7 µM
- IC50 ([7]; read-out: IC50 (µM) ± S.D. HCT-15, 72 h, MTT test): 15.5 ± 2.5 µM
- IC50 [18]: 7.6 ± 3 µM
- IC50 [19]: 2.1 ± 0.4 µM
- IC50 [20]: 4 ± 1 µM
- IC50 [21]: 8.4 ± 0.9 µM
- IC50 [22]: 2.3 ± 1.1 µM
- RF ([23]; RF = IC50 resistant/IC50 parental cell lines (C13*/2008)): 9.5
- IC50 ([23]; read-out: IC50 (µM) ± D.S. C13*, 72 h, MTT test, cisplatin-resistant cells): 21.5 ± 3 µM
- IC50 [24]: 7.9 µM

Compound: CC(=O)N1CN2CN(C(C)=O)CP(C2)C1 [DAPTA, 3,7-diacetyl-1,3,7-triaza-5-phosphabicyclo [3.3.1]nonane]
- IC50 [1]: 89.5 ± 4.1 µM
- IC50 [2]: 67.1 ± 3.1 µM
- IC50 [3]: 85.3 ± 4 µM
- IC50 [4]: > 100 µM
- IC50 [5]: > 100 µM
- IC50 [6]: > 100 µM

Compound: c1ccc(P(c2ccccc2)c2ccccc2)cc1 [PPh3, triphenylphosphine]
- DNA damage in comet assay, in words [9]: scarcely effective in increasing comet tail lengths
- IC50 [1]: 62.2 ± 2.2 µM
- IC50 [2]: 54.1 ± 4.2 µM
- IC50 [3]: 34.2 ± 3.4 µM
- IC50 [4]: 47.5 ± 1.1 µM
- IC50 [5]: 52.3 ± 2.5 µM
- IC50 [6]: 30.1 ± 2.1 µM

Compound: [Ag(PCN)2]BF4 [Compound 9]
- times more effective than cisplatin, HCT-15 [7]: roughly 4.4 fold
- reduction of total cellular TrxR activity [8]: about 70%

Compound: AgNO3
- TrxR1 inhibition, in words [25]: effective in inhibiting the redox enzyme activity at nanomolar level
- reduction of total cellular TrxR activity [8]: 12%

Compound: [HB(pz)3]Ag(PPh3) [Compound 5]
- times more effective than cisplatin, HCT-15 [7]: about 7 fold
- reduction of total cellular TrxR activity [8]: about 75%
- increase of well-formed comets ([9]; IC50 dose): about 69%
- modification of DNA absorption bands [10]: slight hyperchromic effect at 263 nm
- cellular sulfhydryl content [11]: lowest levels of cellular sulfhydryl groups
- basal ROS / hydrogen peroxide production [12]: increase in basal hydrogen peroxide formation rather similar to that obtained with antimycin
- cells with hypopolarized mitochondrial membrane potential [13]: increase in the percentage of hypopolarized cells similar to that induced by reference compound carbonyl cyanide-m-chlorophenylhydrazone (CCCP)
- mitochondrial morphology by TEM [14]: mitochondria with disrupted cristae and a significant increase in volume (swelling)
- caspase-3 activation [15]: time-dependent activation of caspase-3
- enhancement in caspase-9 activity compared to control cells [16]: 3.3 fold
